Data taken from patent US12600740B2, “Fluorinated N-acetyl glucosamine analogs and xylose derivatives” (UTI Limited Partnership, priority 2018, dated 2026).
Entries after “also recorded” stand apart in the source; their conditions may differ. Like-named read-outs stand apart in the source and are kept apart here.

Tests used:
[1] = tested on: CSPG production by astrocytes; assay: Western blot of astrocyte conditioned medium, MAB2030 (chondroitin sulfate GAG stubs); assay type: cell-based, mouse; conditions: for Reduce CSPG production: astrocytes, significance class
Outline: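 Astrocytes (1×10^6 cells/well) were treated with 50 μM compound in AIM-V for 48 h, and pooled conditioned medium was concentrated for Western blot. Samples for MAB2030 were digested overnight at 37° C with 0.2 U/ml chondroitinase ABC; 2H6 blots were undigested. ECL band density was normalized to untreated astrocytes on the same gel.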

splenocytes = assay: Splenocyte thymidine proliferation assay (anti-CD3/anti-CD28); assay type: cell-based, mouse; conditions: for Reduce T cell proliferation: activated splenocytes, significance class; for splenocyte proliferation: 25 μM, 48 hours
Experimental: It was assessed whether the glucosamine analogs have immunomodulatory properties on splenocytes isolated in culture. T cells within the splenocyte pool were polyclonally activated with anti-CD3 and anti-CD28 antibodies in the presence of compounds for 48 hours, and proliferation was determined by the uptake of tritiated thymidine and expressed as counts per minute. The relative change in proliferation of treated versus control splenocytes was taken in order to rank the compounds across multiple independent experiments (FIG. 8a).
The spleens were isolated from 8-10-week-old female C57BL/6 mice and homogenized. The cells were isolated by Ficoll gradient and spun for 30 min at 1,800 r.p.m. The cell suspension was removed and the cells were washed once with PBS. The cell pellet was subsequently re-suspended in Roswell Park Memorial Institute media containing 10% fetal bovine serum, 1% penicillin/streptomycin, 1% sodium pyruvate and 1% L-glutamine. Trypan blue exclusion was used to count live cells, and the cells were plated at 2.5×10^5 cells per well in a round-bottom 96-well plate and activated with 1,000 ng/ml plate-bound anti-CD3 and 1,000 ng/ml anti-CD28 suspended in media to preferentially activate T lymphocytes. Compounds were added at final concentrations of 25 μM. The cells were kept at 37° C. and 5% CO2 for 30 h, after which 10 μl/well (1 μCi per well) of 3H-thymidine was added for 18 h. The cells containing thymidine were harvested onto filter mats using a cell harvester and mats were allowed to dry for 24 h. The results were read by liquid scintillation counts.

[2] = tested on: intact 4-sulfated chondroitin sulfate sidechains (2H6); assay: Western blot of astrocyte conditioned medium, 2H6 (intact chondroitin-4-sulfate); assay type: cell-based, mouse; conditions: astrocyte conditioned media
Excerpt: Astrocytes are major producers of CSPGs following injury in the CNS [Jones, L. L., Margolis, R. U. & Tuszynski, M. H. The chondroitin sulfate proteoglycans neurocan, brevican, phosphacan, and versican are differentially regulated following spinal cord injury. Experimental Neurology 182, 399-411 (2003); Tang, X., Davies, J. E. & Davies, S. J. Changes in distribution, cell associations, and protein expression levels of NG2, neurocan, phosphacan, brevican, versican V2, and tenascin-C during acute to chronic maturation of spinal cord scar tissue. […] The Journal of neuroscience: the official journal of the Society for Neuroscience 20, 2427-2438 (2000); McKeon, R. J., Jurynec, M. J. & Buck, C. R. The chondroitin sulfate proteoglycans neurocan and phosphacan are expressed by reactive astrocytes in the chronic CNS glial scar. The Journal of neuroscience: the official journal of the Society for Neuroscience 19, 10778-10788 (1999); Haas, C. A., Rauch, U., Thon, N., Merten, T. & Deller, T. Entorhinal cortex lesion in adult rats induces the expression of the neuronal chondroitin sulfate proteoglycan neurocan in reactive astrocytes. The Journal of neuroscience: the official journal of the Society for Neuroscience 19, 9953-9963 (1999)] and they may help drive progression of disability in a model of progressive MS [Mayo, L. et al. Regulation of astrocyte activation by glycolipids drives chronic CNS inflammation. Nature medicine 20, 1147-1156 (2014)]. Therefore astrocytes were used as model cells to determine the ability of the sugar analogs to reduce synthesis of CSPGs. Since CSPGs are exported out of cells, the conditioned media from analog-treated astrocytes were probed by Western blots (FIG. 4). We used antibodies to both the stubs of chondroitin sulfate GAGs attached to the core protein (MAB2030) and to intact 4-sulfated chondroitin sulfate sidechains (2H6) (FIG. 4a). Particularly, we used the 2H6 antibody to label intact 4-sulfated chondroitin sulfate sidechains, and the MAB2030 antibody to detect the stubs of chondroitin sulfate GAGs attached to the core protein. […] 1998, 160 (8), 3812-3819. Poole Poole C. A.; Glant T. T.; Schofield J. R.; Chondrons from articular cartilage. (IV). Immunolocalization of proteoglycan epitopes in isolated canine tibial chondrons. J. Histochem. Cytochem. 1991, 39 (9), 1175-1187].
Astrocytes were plated in uncoated 6-well plates (3 replicate wells per treatment) at 1×10^6 cells/well in mixed glial media, and incubated at 5% CO2 and 37° C. Astrocytes were treated with compounds at 50 μM in AIM-V media for 48 hours. Media was pooled from 3 replicate wells in 15 ml 100K cutoff centricon tubes (EMD Millipore, #UFC905008), which were spun on an ultracentrifuge at 5000× g for 2 cycles of 10 minutes each. […] Total protein was quantified using a Bradford assay. […]

human neurons = assay: Human neuron ATP luminescence assay; assay type: cell-based; conditions: 100 μM
Experimental: If the sugar compounds are to be used in neurological disorders, they should not display toxicity to neural cells. Thus, human neurons were used to test the compounds, and the ATP luminescence assay as a readout of metabolic stress and a surrogate of toxicity. Compounds were tested at a high dose of 100 μM. […] Two compounds that reduced ATP production by more than 50% were the 4-fluorinated hemiacetals that respectively bear O3,O6-diacetates 10 (Ac-4-F-GlcNAcOH) and O3,O6-dipropanoates 11 (Pr-4-F-GlcNAcOH), with the former displaying higher cytotoxicity than the latter (FIG. 6d).
Human fetal neurons were plated at 10×10^4 cells/well in 96 well plates as previously described [Vecil, G. G. et al. Interleukin-1 is a key regulator of matrix metalloproteinase-9 expression in human neurons in culture and following mouse brain trauma in vivo. Journal of Neuroscience Research 61, 212-224 (2000)]. After 24 hours neurons were treated with 100 μM compounds and incubated for 24 hours. The ATP assay (CellTiter-Glo Luminescent Cell Viability Assay; Promega, Madison, WI, USA) was then performed to test for toxicity according to manufacturer's instructions.

[3] = astrocyte conditioned media, 50 μM, 48 hours

SMILES | effect on CSPG production by astrocytes [1, 3] | Reduce CSPG production [1] | Reduce T cell proliferation (splenocytes) | total chondroitin sulfate side chains (2H6) [2] | cytotoxicity on neurons (human neurons) | effect on CSPG production by astrocytes [1] | splenocyte proliferation (splenocytes)
CC(=O)NC1C(OC(C)=O)OC(COC(C)=O)[C@@H](F)C1OC(C)=O (stereo partly shown) [Compound 3, reference compound] | most effectively reduced CSPG production | *** (***p < 0.001) | **** (****p < 0.0001) | showed evidence of reducing total chondroitin sulfate side chains |  |  | 
CC(=O)NC1C(O)OC(COC(C)=O)[C@@H](F)[C@@H]1OC(C)=O (mixture of isomers) [Compound 10] |  |  |  | showed evidence of reducing total chondroitin sulfate side chains | showed evidence of toxicity on neurons | most effectively reduced CSPG production | 
CCCC(=O)OC[C@H]1OC(O)[C@H](NC(C)=O)[C@@H](OC(=O)CCC)[C@@H]1F (stereo partly drawn) [Compound 12, 2-Acetamido-3,6-di-O-butanoyl-2,4-dideoxy-4-fluoro-α/β-3-D-glucopyranose] | did not affect CSPG synthesis; also recorded: did not lower CSPG production in astrocytes | n.s. | ** (**p < 0.01) |  | showed no cytotoxicity |  | reduced splenocyte proliferation
CC(=O)N[C@H]1[C@H](OC(C)=O)O[C@H](COC(C)=O)[C@@H](OC(C)=O)[C@@H]1OC(C)=O [Compound 1, reference compound] | did not affect CSPG production; also recorded: did not lower CSPG production in astrocytes | n.s. | **** (****p < 0.0001) |  |  |  | reduced splenocyte proliferation
CC(=O)NC1C(OC(C)=O)OC(COC(C)=O)C(F)(F)[C@@H]1OC(C)=O (mixture of isomers) [Compound 16, 2-Acetamido-1,3,6-tri-O-acetyl-2,4-dideoxy-4,4-difluoro-α/β-D-xylo-hexopyranose] | reduced CSPG production in astrocytes more effectively than Ac-4-F-GlcNAc 3; also recorded: most effectively reduced CSPG production |  |  | showed evidence of reducing total chondroitin sulfate side chains | no signs of toxicity in neurons |  | 
CC(=O)NC1C(OC(C)=O)OC(COC(C)=O)[C@H](F)[C@@H]1OC(C)=O (mixture of isomers) [Compound 13, 2-Acetamido-1,3,6-tri-O-acetyl-2,4-dideoxy-4-fluoro-α/β-D-galactopyranose] | significantly reduced chondroitin sulfate GAGs; also recorded: most effectively reduced CSPG production |  |  |  |  |  | 
CCC(=O)OC1OC(COC(C)=O)[C@@H](F)[C@H](OC(C)=O)C1NC(C)=O (stereo partly drawn) [Compound 7, 2-Acetamido-3,6-di-O-acetyl-2,4-dideoxy-4-fluoro-1-O-propanoyl-α/β-D-glucopyranose] | most effectively reduced CSPG production |  |  | showed evidence of reducing total chondroitin sulfate side chains |  |  | 
